Counter-ions that a name gives are not always drawn.

Data set [1] deals with Alternaria solani. The data set can be described thus: Antifungal activity against Alternaria solani on tomato plants (percent control relative to untreated plants). Format: in vivo.
In data set [2] the test system is Botrytis cinerea. Briefly: Antifungal activity against Botrytis cinerea on plants (percent control relative to untreated plants). Particulars: Example 3; stored at 54° C. for two weeks or at 40° C. for eight weeks.
The nature of data set [3]: Relative fusaricidin A levels in stored formulations by HPLC/MS TOF. The following applies: Example 4; 54° C. for two weeks or 40° C. for eight weeks; FIGS. 3 and 4.
[4] abbreviates: agent at 2% in 70:30 (BC:water) dilution, after storage at 54° C. for two weeks.
[5] abbreviates: Example 3, stored at 54° C. for two weeks or at 40° C. for eight weeks.
The mark [6] stands for this setting: across the three assays of Tables 2-4, agent at 2% in 60:40 (BC:water) dilution.

For the compound `O=C([O-])CC(O)(CC(=O)[O-])C(=O)[O-].[K+].[K+].[K+]` [Potassium citrate (tribasic), potassium citrate (tribasic)], the “effect of stabilizing agent on antifungal activity of Paenibacillus sp. strain NRRL B-50972 BC” value in data set [1] (setting [4]) is reported as “demonstrated a stabilizing effect”.

Turning to `C[N+](C)(C)CC(=O)O` [betaine hydrochloride], the “effect of stabilizing agent on antifungal activity of Paenibacillus sp. strain NRRL B-50972 BC” value in data set [1] (setting [5]) and in data set [2] was “robust effect in stabilizing the antifungal activity” each time. With `N=C(N)N` [guanidine hydrochloride], in data set [1] (setting [6]), the “effect of stabilizing agent on antifungal activity of Paenibacillus sp. strain NRRL B-50972 BC” value is “preserved the antifungal activity”. With `O=P([O-])([O-])O.[K+].[K+]` [potassium phosphate (dibasic)], the “effect of stabilizing agent on antifungal activity of Paenibacillus sp. strain NRRL B-50972 BC” value in data set [1] (setting [5]) was “less than that of urea and betaine hydrochloride”; in data set [1] (setting [4]) it was “stabilized the antifungal activity”; in data set [2], “less than that of urea and betaine hydrochloride”. Moreover, the “effect of stabilizing agent on fusaricidin A in Paenibacillus sp. strain NRRL B-50972 BC” value in data set [3] is “had less of an effect in stabilizing fusaricidin A”. With `O=P([O-])(O)O.[K+]` [potassium phosphate (monobasic)], in data set [1] (setting [4]), the “effect of stabilizing agent on antifungal activity of Paenibacillus sp. strain NRRL B-50972 BC” value was “did not”. Consider `NC(N)=O` [urea, carbonic diamide (CO(NH2)2)], for which the “effect of stabilizing agent on antifungal activity of Paenibacillus sp. strain NRRL B-50972 BC” value in data set [1] (setting [5]) is “robust effect in stabilizing the antifungal activity”; in data set [1] (setting [6]), “preserved the antifungal activity”; in data set [2] it was “robust effect in stabilizing the antifungal activity”. With glycerol ethyl oxylate, the “effect of stabilizing agent on antifungal activity of Paenibacillus sp. strain NRRL B-50972 BC” value in data set [1] (setting [6]) was “had little effect”.

Source of the values: patent US20210204550A1, “STABILIZED FUNGICIDAL COMPOSITION” (priority 2018, published 2021).
